Data on 1 compound can be found in publication PMC10845951, “Characterization of a selective, iron-chelating antifungal compound that disrupts fungal metabolism and synergizes with fluconazole” (Microbiology Spectrum, 2024).

The test system of one data set is HEK-293 cells. Kind of data set: CellTiter-Glo assay for human cells. The format is cell-based. The conditions noted are these: HEK293, HEK-293, 24 h. The method, then:
(§1) HEK-293 and HS-5 cells were stored in liquid nitrogen, in freezing medium [50% Dulbecco’s Modified Eagle’s Medium (DMEM), 40% fetal bovine serum, and 10% DMSO] for long-term storage. For experimental use, the cells were thawed and then cultured using DMEM containing 10% […] and 1% penicillin/streptomycin.
(§2) The 1:1 serial dilutions of the compounds were performed in 96-well plates to obtain a final concentration range (three technical replicates each) equivalent to 0.781, 1.562, 3.125, 6.25, 12.5, 25, 50, and 100 µM. […] The plates were placed inside plastic bags to prevent evaporation and incubated at 37°C, 5% CO2 for 24 h. One hundred microliters of CellTiter-Glo 2.0 (Promega, G9243) was added to each well and then measured for luminescence using a Synergy 2 Gen 5 plate reader from BioTek.
Background: ATP-based viability assays read luminescence as a measure of living cells.

The subject of the next data set is HS-5 cells. Kind of data set: CellTiter-Glo assay for human cells. The format is cell-based. The note with it: HS5, HS-5, 24 h. The method, then: as §1, §2
The nature of data set [1]: Nano liquid chromatography-mass spectrometry metal binding. The protocol:
Liquid chromatography-mass spectrometry (LC-MS)-grade water, acetonitrile, and formic acid (≥99%) were purchased from VWR (Radnor, PA, USA). […] Metal solutions containing 2 µM, 4 µM, 6 µM, and 10 µM CaCl2, CuCl2, FeCl2, FeCl3, MgCl2, MnCl2, and ZnCl2 in 0.1% formic acid in LC-MS-grade water (hereby referred to as 0.1% formic acid) were made. A stock solution of terpyridine (100 µM) in 0.1% formic acid was made and added to the metal solutions to a final concentration of 10 µM terpyridine. All metal solutions in addition to a blank sample containing 10 µM terpyridine in 0.1% formic acid were subjected to nano liquid chromatography (nanoLC-MS) analysis. nanoLC-MS was performed using an nLC EASY 1000 pump connected to a Q-Exactive mass spectrometer (MS) with a Nanospray Flex ion source (all from Thermo Fisher Scientific, Waltham, MA, USA). For separation, a 50 µm (inner diameter) × 5 cm in-house packed nanoLC column containing 2.6-µm Accucore C18 particles (80 Å) was used. The column was packed according to the protocol from Berg et al. ([58]). Trapping of analytes prior to separation was performed online using a 2-cm Acclaim PepMap with 3-µm particles (100 Å). All columns and packing materials were obtained from Thermo Fisher Scientific. The mobile phases consisted of 0.1% formic acid (A) and 90/10/0.1 acetonitrile/water/formic acid (vol/vol/vol) (B).

A further data set relates to C. glabrata WT. Kind of data set: Cell proliferation with metal supplementation. The class given is cell-based, Candida glabrata. The protocol: One-millimolar stocks of metal solutions (CaCl2, CuCl2, FeCl2, FeCl3, MgCl2, MnCl2, and ZnCl2) were prepared in mQH2O and autoclaved. […] Fifty microliters of either mQH2O or metal solution were added to each well, including 50 µL of refreshed C. glabrata WT with an adjusted OD600 of 0.15. The 96-well plates were measured at OD600 and incubated in plastic bags to prevent evaporation for 24 h, after which the final OD600 was measured.

For data set [2], the system named is Aft1/2 target genes FTR1, FET3, HMX1, LSO1 in WT S. cerevisiae. Description: RT-qPCR of Aft1/2 target genes. The format is cell-based, Saccharomyces cerevisiae. The note with it: WT Sc cells, 10 µM, 24 h. The protocol: (§3) WT and […] cells were grown overnight in complete supplement mixture (CSM). […] After 24 h of incubation, cells were collected, and total RNA purification, reverse transcription, and RT-qPCR were performed as previously described with minor modifications ([59], [66]). Briefly, total RNA was purified using the RNeasy Mini Kit (74104, Qiagen), and reverse transcription was performed using the QuantiTect Reverse Transcription Kit (205311, Qiagen). RT-qPCR experiments were done using the HOT FIREPol EvaGreen qPCR Mix (08-36-00001-10, Solis Biodyne) and a LightCycler 96 System (Roche). Expression of the 5S gene was used as a control. The primers used in RT-qPCR experiments are as follows: […]
In general terms: Real-time PCR tracks product formation cycle by cycle.

The test system of data set [3] is Aft1/2 target genes in aft1Δ S. cerevisiae. Description: RT-qPCR of Aft1/2 target genes in aft1Δ strain. The conditions noted are these: 10 µM, 24 h. The class given is cell-based, Saccharomyces cerevisiae. The method, then:
as §3

Data set [4] relates to G. mellonella larvae infected with C. glabrata 2001HT. Kind of data set: Survival assay in infected Galleria mellonella. The class given is in vivo. The conditions noted are these: wild-type C. glabrata (2001HT), 30 µM, vs DMSO. The method, then:
(§4) Galleria mellonella was obtained from R.J. Mous Livebait (The Netherlands). The larvae were selected by weight (0.2–0.3 grams) and by the absence of dark spots on the cuticle. The larvae were maintained at room temperature, and the day before the experiment, they were transferred to the temperature at which the experiment was going to be performed (30°C). The number of dead caterpillars was scored every day. […] G. mellonella were infected with either C. glabrata 2001HT or FL-256; C. glabrata cells were grown in liquid media (Oxoid) overnight at 30°C with moderate shaking (150 rpm). Groups of 20 larvae per strain were infected in each experiment. The pro-leg area was cleaned with 70% ethanol using a swab. The larvae were inoculated with 10 µL of C. glabrata suspension at 2.5 × 10^6 cells/mL in PBS containing 50 µg/mL of ampicillin by injection, using a Hamilton syringe with 26-gauge needle in the last left pro-leg.

Data set [5] has as its system G. mellonella larvae infected with C. glabrata FL-256. Description: Survival assay in infected Galleria mellonella. The class given is in vivo. The conditions noted are these: azole-resistant C. glabrata (FL-256), 30 µM, vs DMSO. The method, then: as §4
In another data set the test system is G. mellonella larvae. Description: Toxicity of compound to Galleria mellonella larvae. The class given is in vivo. The note with it: high concentration (30 µM). The protocol: as §4
The test system of a further data set is HEK-293 and HS-5 cells. Description: Incucyte live-cell imaging of treated human cells (morphology, compound precipitation).

By EC50 is commonly meant the concentration giving half of the maximal effect. In the case of `c1ccc(-c2cccc(-c3ccccn3)n2)nc1` [2,2′:6′,2′′-terpyridine], the EC50 with HEK-293 cells was 37.1 ± 6.94 µM; in the data set on HS-5 cells, 28.7 ± 8.32 µM. Moreover, the “binding of Fe^2+” value in data set [1] (2-10 µM metal, 10 µM compound) is listed as “preferentially binds Fe^2+ in a concentration-dependent manner”. The “binding of Fe^3+” value in data set [1] (2-10 µM metal, 10 µM compound) was “much lesser extent than Fe^2+”. Moreover, the “binding of Cu^2+” value in [1] (even at high concentrations) is recorded as “hardly bind”. In addition, the “binding of Zn^2+” value in [1] (even at high concentrations) is “hardly bind”. Besides, the “change of EC50 on metal addition” value with C. glabrata WT (+5 µM Cu^2+ (CuCl2), 24 h) is “significantly increased”; in the data set with C. glabrata WT (+5 µM FeCl2, 24 h), “significantly increased”; in the data set with C. glabrata WT (+5 µM Zn^2+ (ZnCl2), 24 h), “significantly increased”. Besides, the “expression of Aft1/2 target genes FTR1, FET3, HMX1, LSO1” value in data set [2] is on record as “robust activation”. For the same compound, the “expression of control 5S RNA” value in data set [2] was “no effect”. For the same compound, in [3], the “transcriptional responses after deletion of AFT1” value is “attenuated the transcriptional responses”. Besides, the “survival of infected larvae” value in [4] and in data set [5] was “significantly improved the survival” in each case. Also, the “toxicity to the larvae” value in the data set on G. mellonella larvae was “well tolerated”. For the same compound, the cell morphology entry in the data set on HEK-293 and HS-5 cells (100 µM) is on record as “morphological changes”. Moreover, the “compound precipitation / solubility” value in the data set on HEK-293 and HS-5 cells (cell culture medium, up to 100 µM) is “better solubility”.
